Results on eleven molecules are retold here after ChEMBL document CHEMBL1201862, “PubChem BioAssay data set” (2004).

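Step 1: Grow cells in 96-well plates. Step 2: Expose to compound for 48 hours at 5 concentrations. Step 3: Interpolate endpoints linearly; if unreached, use highest concentration. GI50 marks 50% less growth.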 Active and inactive are the calls of the source. Cut-off read from the data, not from the text of the source: active = GI50 up to about 1.1 µM and inactive = higher.

Some test systems named below: SNB-75; SF-539; OVCAR-8; NCI-H226; UO-31; COLO 205; ACHN; HL-60; NCI-H522; NCI/ADR-RES; HOP-62; SNB-19; 786-0; SW-620; SK-MEL-5; PC-3; MDA-MB-435; U-251; HOP-92.
What all share (experiment): growth of human tumour cells (NCI), 48 h

As for `CC(C)(C)c1ccc(NS(=O)(=O)c2ccc(N)cc2)cc1`, the GI50 with SNB-75 was 30.8 µM (inactive); in the assay on SF-539, 25.8 µM (inactive); with OVCAR-8 it was 27.5 µM (inactive); in the assay with NCI-H226, 22.2 µM (inactive); in the assay on UO-31 it was 24.9 µM (inactive); in the assay on COLO 205, 16.1 µM (inactive). Also, the GI50 with ACHN was 29.4 µM (inactive); in the assay with HL-60, 18.1 µM (inactive); in the assay on NCI-H522 it was 17 µM (inactive); in the assay with NCI/ADR-RES it was 25.4 µM (inactive); in the assay with HOP-62, 0.634 µM (active); with SNB-19 it was 35.7 µM (inactive). In addition, the GI50 is 23 µM (inactive) with 786-0; 26.9 µM (inactive) in the assay on SW-620; 17.9 µM (inactive) in the assay on SK-MEL-5; 28.5 µM (inactive) in the assay with PC-3; 29.9 µM (inactive) in the assay with MDA-MB-435; 19.3 µM (inactive) with U-251.

Consider `COC(=O)c1c2c(cc3c1CC1(C3)Cc3cc4c(c(C(=O)OC)c3C1)CCCC4)CCCC2`, for which the GI50 in the assay with SF-539 is > 100 µM (inactive); with OVCAR-8, > 100 µM (inactive); in the assay on NCI-H226, > 100 µM (inactive); in the assay on UO-31, 0.381 µM (active); in the assay on COLO 205 it was > 100 µM (inactive); in the assay on ACHN, > 100 µM (inactive). The GI50 is 24.2 µM (inactive) in the assay with HL-60; > 100 µM (inactive) with NCI-H522; > 100 µM (inactive) with NCI/ADR-RES; > 100 µM (inactive) with HOP-62; > 100 µM (inactive) with 786-0; 53.3 µM (inactive) in the assay on SK-MEL-5. The GI50 with PC-3 was 3.94 µM (inactive); in the assay with MDA-MB-435, > 100 µM (inactive); with HOP-92, > 100 µM (inactive); in the assay on U-251, > 100 µM (inactive).

`COc1ccc(C(=O)/C=C/c2ccc(O)c(O)c2F)c(OC)c1`: the GI50 with SNB-75 was 7.52 µM (inactive); in the assay with SF-539, 3.2 µM (inactive); in the assay on OVCAR-8, 7.76 µM (inactive); in the assay with NCI-H226, 11.4 µM (inactive); in the assay on UO-31 it was 2.56 µM (inactive); in the assay on COLO 205, 11.5 µM (inactive). The GI50 is 3.01 µM (inactive) in the assay on ACHN; 0.327 µM (active) with NCI-H522; 4.62 µM (inactive) in the assay with NCI/ADR-RES; 4.36 µM (inactive) in the assay with HOP-62; 8.3 µM (inactive) in the assay with SNB-19; 4.43 µM (inactive) in the assay on 786-0. The GI50 with SW-620 is 5.09 µM (inactive); in the assay on SK-MEL-5, 1.61 µM (inactive); in the assay on PC-3, 3.14 µM (inactive); in the assay on MDA-MB-435, 3.58 µM (inactive); in the assay on HOP-92, 20 µM (inactive); in the assay on U-251 it was 2.94 µM (inactive).

In the case of `CC1(C)OC2COC3([C@@H]4OC(C)(C)O[C@@H]4CO)OC(C)(C)OC3C2O1` (stereo not given in full), the GI50 in the assay on SNB-75, with SF-539, in the assay with OVCAR-8, with NCI-H226, in the assay with UO-31 and in the assay on COLO 205 was > 100 µM (inactive) each time. Besides, the GI50 in the assay with ACHN, with NCI/ADR-RES, with HOP-62, with SNB-19, with 786-0 and in the assay on SW-620 was > 100 µM (inactive) throughout. In addition, the GI50 with SK-MEL-5, with PC-3, with MDA-MB-435, in the assay on HOP-92 and in the assay with U-251 was > 100 µM (inactive) in each case.

In the case of `CN1C2=Nc3n(C)c4ccccc4[n+]3CN2c2ccccc21`, the GI50 is 69.5 µM (inactive) in the assay on SF-539; 57.1 µM (inactive) with OVCAR-8; > 100 µM (inactive) in the assay with UO-31; 12.7 µM (inactive) with COLO 205; > 100 µM (inactive) in the assay on ACHN; > 100 µM (inactive) in the assay on HL-60. Besides, the GI50 is 16.8 µM (inactive) with NCI-H522; > 100 µM (inactive) in the assay with NCI/ADR-RES; > 100 µM (inactive) in the assay with HOP-62; 35.3 µM (inactive) with SNB-19; 36.2 µM (inactive) with 786-0; 24.3 µM (inactive) with SW-620. Also, the GI50 with SK-MEL-5 is 12.6 µM (inactive); with PC-3, 47.3 µM (inactive); in the assay on MDA-MB-435, 26.5 µM (inactive); in the assay with HOP-92, 22.6 µM (inactive); in the assay on U-251, 25.2 µM (inactive).

With `CN1C(=O)CN(NC(=O)C2=C(O)c3ccc(Br)cc3S(=O)(=O)N2)C1=S`, the GI50 in the assay on OVCAR-8 was > 100 µM (inactive); in the assay with NCI-H226 it was > 100 µM (inactive); with UO-31, > 100 µM (inactive); in the assay on COLO 205 it was > 100 µM (inactive); in the assay on ACHN it was > 100 µM (inactive); in the assay on HL-60, 33 µM (inactive). Moreover, the GI50 in the assay on NCI-H522 is 75.7 µM (inactive); in the assay on NCI/ADR-RES it was > 100 µM (inactive); with HOP-62, > 100 µM (inactive); in the assay with SNB-19, > 100 µM (inactive); in the assay with 786-0 it was > 100 µM (inactive); in the assay on SW-620 it was > 100 µM (inactive). The GI50 in the assay on SK-MEL-5, with PC-3, in the assay on MDA-MB-435, with HOP-92 and in the assay on U-251 was > 100 µM (inactive) each time.

With `CC1=NN(c2ccccc2Cl)C2(C1)SCC(=O)N2c1nc2ccccc2s1` (stereo not given), the GI50 in the assay on SNB-75, with SF-539, with OVCAR-8, with NCI-H226, in the assay with UO-31 and with COLO 205 was > 100 µM (inactive) in each case. Besides, the GI50 in the assay on ACHN, in the assay on NCI-H522, in the assay with NCI/ADR-RES, in the assay with HOP-62, in the assay on SNB-19 and in the assay with 786-0 was > 100 µM (inactive) each time. Moreover, the GI50 with SW-620, in the assay with SK-MEL-5, in the assay with PC-3, in the assay with MDA-MB-435, in the assay with HOP-92 and in the assay with U-251 was > 100 µM (inactive) each time.

Consider `Cc1ccc(SCC(CF)OCn2cc(F)c(=O)[nH]c2=O)cc1` (stereo not given), for which the GI50 is > 100 µM (inactive) in the assay with SF-539; > 100 µM (inactive) with OVCAR-8; > 100 µM (inactive) in the assay on UO-31; > 100 µM (inactive) with ACHN; 76.9 µM (inactive) in the assay with HL-60; > 100 µM (inactive) with NCI-H522. For the same molecule, the GI50 in the assay on NCI/ADR-RES, in the assay with HOP-62, in the assay on SNB-19, in the assay on 786-0, with SW-620 and in the assay on SK-MEL-5 was > 100 µM (inactive) in each case. Also, the GI50 in the assay on PC-3, in the assay on MDA-MB-435, in the assay with HOP-92 and with U-251 was > 100 µM (inactive) in each case.

On to `CC1=NN(c2nc(N)nc(/C(C#N)=C\c3ccc([N+](=O)[O-])s3)n2)C(C)(C)C1`, for which the GI50 was 0.764 µM (active) in the assay on SNB-75; 0.169 µM (active) with SF-539; 0.113 µM (active) in the assay on OVCAR-8; 2.39 µM (inactive) in the assay with NCI-H226; 0.167 µM (active) in the assay with UO-31; 0.339 µM (active) with COLO 205. Moreover, the GI50 is 0.261 µM (active) with ACHN; 0.101 µM (active) in the assay on NCI-H522; 1.18 µM (inactive) in the assay on NCI/ADR-RES; 0.316 µM (active) in the assay with HOP-62; 1.66 µM (inactive) with SNB-19; 0.16 µM (active) in the assay on 786-0. Moreover, the GI50 is 0.0736 µM (active) in the assay on SW-620; 0.625 µM (active) with SK-MEL-5; 0.165 µM (active) with PC-3; 0.233 µM (active) in the assay on MDA-MB-435; 0.302 µM (active) with HOP-92; 0.104 µM (active) in the assay with U-251.

As for `COc1ccc(NC(C)c2ccncc2)cc1` (stereo not given), the GI50 in the assay with SNB-75, with SF-539, in the assay on OVCAR-8, in the assay on NCI-H226, in the assay on UO-31 and with COLO 205 was > 100 µM (inactive) throughout. Further, the GI50 in the assay on ACHN, in the assay on NCI-H522, in the assay with NCI/ADR-RES, in the assay with HOP-62, with SNB-19 and in the assay on 786-0 was > 100 µM (inactive) each time. Moreover, the GI50 in the assay with SW-620, in the assay with SK-MEL-5, in the assay with PC-3, in the assay with MDA-MB-435, with HOP-92 and in the assay with U-251 was > 100 µM (inactive) in each case.

For `C[C@@H]1CCC2[C@@H](C)C(=O)O[C@@H]3C4C[C@@H]1[C@@]23OO[C@@]4(C)O` (stereo not given in full), the GI50 with SNB-75 is 75.5 µM (inactive); in the assay with SF-539 it was 55.6 µM (inactive); with OVCAR-8 it was 82.8 µM (inactive); in the assay with UO-31 it was 27.9 µM (inactive); in the assay with COLO 205, > 100 µM (inactive); in the assay with ACHN, 58.7 µM (inactive). The GI50 in the assay on NCI-H522 is 40.8 µM (inactive); in the assay on NCI/ADR-RES, > 100 µM (inactive); with HOP-62 it was 48.3 µM (inactive); in the assay with SNB-19, > 100 µM (inactive); with 786-0 it was > 100 µM (inactive); in the assay on SW-620, > 100 µM (inactive). Besides, the GI50 is 2.81 µM (inactive) in the assay on SK-MEL-5; > 100 µM (inactive) in the assay with PC-3; 72.6 µM (inactive) in the assay with MDA-MB-435; > 100 µM (inactive) in the assay with HOP-92; 48.8 µM (inactive) in the assay with U-251.
